US4112217A, “Bis-hydrazones of daunomycin and adriamycin” (SRI International, priority 1977, dated 1978)
Where a name gives a salt, the structure may show the parent alone. Read-outs that look alike come from different tables or passages of the source.

What was measured:
[1] = test system: Cultured L1210 Leukemia Cells; assay: Inhibition of RNA synthesis in cultured lymphoid leukemia L1210 cells; assay type: cell-based; details: Mus musculus
Experimental: (§1) Biological testing data for compounds of this invention as the HCl salts, as well as for adriamycin and daunomycin, are presented in the table given below. The compounds were tested first in cultured lymphoid leukemia L1210 cells for inhibition of nucleic acid synthesis by previously reported procedures. The analogs were then tested against lymphocytic leukemia P388 implanted in mice, under the auspices of the NCI and according to its protocols which use the increased survival time of treated mice compared to controls as the measure of antitumor efficacy.
(§2) ^b Assay described in G. Tong, W. W. Lee, D. R. Black and D. W. Henry

[2] = test system: Cultured L1210 Leukemia Cells; assay: Inhibition of DNA synthesis in cultured lymphoid leukemia L1210 cells; assay type: cell-based; details: Mus musculus
Experimental: as §1, §2

P388 Leukemia in Mice = assay: Antitumor efficacy vs lymphocytic leukemia P388 implanted in mice (NCI protocol); assay type: in vivo, mice (murine)
Experimental: as §1
^c Ip P388 murine leukemia treated ip on QD1-9 and Q4D 5, 9, 13
schedules according to standard NCI protocols. Assay described in R. I.
Geran, N. H. Greenberg, M. M. MacDonald, A. M. Schumacker and B. J.
Abbott, Cancer Chemother. Rep., Part 3, 3 (No. 2), 9 (1972), Protocol
1,200. T/C = ratio of survival time of treated mice to that of untreated
controls times 100. Untreated controls survive about 9 days.

[3] = L1210, read-out: Inhibition of Synthesis of RNA, Ed50
[4] = L1210, read-out: Inhibition of Synthesis of DNA, ED50
[5] = Mus musculus, ip P388, treated ip, q4d 5,9,13, optimum dose 8 mg/kg, read-out: Antitumor Efficacy T/C
[6] = Mus musculus, P388, ip, read-out: Antitumor Efficacy T/C
[7] = cultured L1210 leukemia cells, RNA synthesis, read-out: Inhibition of Synthesis of RNA, Ed50
[8] = cultured L1210 leukemia cells, DNA synthesis, read-out: Inhibition of Synthesis of DNA, ED50
[9] = Mus musculus, P388, ip, ip P388, treated ip, qd 1-9, optimum dose 6.25 mg/kg, read-out: Antitumor Efficacy T/C
[10] = Mus musculus, P388, ip, ip P388, treated ip, q4d 5,9,13, optimum dose 25 mg/kg, read-out: Antitumor Efficacy T/C

## COc1cccc2c1C(=O)c1c(O)c3c(c(O)c1C2=O)C[C@@](O)(C(=O)CO)C[C@@H]3O[C@H]1C[C@H](N)[C@H](O)[C@H](C)O1 [Adriamycin]
[1]; [3]
  IC50: 0.67 µM
[2]; [4]
  IC50: 1.5 µM
P388 Leukemia in Mice; [5]
  response vs control in vivo at 8 mg/kg: 157%
P388 Leukemia in Mice; Mus musculus, ip P388, treated ip, qd 1-9, optimum dose 1.0 mg/kg, read-out: Antitumor Efficacy T/C
  response vs control in vivo at 1 mg/kg: 195%

## COc1cccc2c1C(=O)c1c(O)c3c(c(O)c1C2=O)C[C@@](O)(C(C)=O)C[C@@H]3O[C@H]1C[C@H](N)[C@H](O)[C@H](C)O1 [Daunomycin]
[1]; [3]
  IC50: 0.39 µM
[2]; [4]
  IC50: 0.49 µM
P388 Leukemia in Mice; [5]
  response vs control in vivo at 8 mg/kg: 134%
P388 Leukemia in Mice; Mus musculus, ip P388, treated ip, qd 1-9, optimum dose 0.5 mg/kg, read-out: Antitumor Efficacy T/C
  response vs control in vivo at 0.5 mg/kg: 166%

## COc1cccc2c1C(=O)c1c(O)c3c(c(O)c1C2=O)C[C@@](O)(C(C)=NNC(=O)CCC(=O)NN=C(C)[C@]1(O)Cc2c(O)c4c(c(O)c2[C@@H](O[C@H]2C[C@H](N)[C@H](O)[C@H](C)O2)C1)C(=O)c1c(OC)cccc1C4=O)C[C@@H]3O[C@H]1C[C@H](N)[C@H](O)[C@H](C)O1 [I, Bis(daunomycin) Succinylhydrazone Dihydrochloride]
[1]; [3]
  IC50: 3.4 µM
[2]; [4]
  IC50: 13 µM
P388 Leukemia in Mice; [6]
  response vs control in vivo at 6.25 mg/kg: 283%
  response vs control in vivo at 12.5 mg/kg: 307%
  response vs control in vivo at 20 mg/kg: 170%
P388 Leukemia in Mice; qd 1-9, 6.25 mg/kg, sacrifice at 30 days
  treated mice survived until sacrifice at 30 days: Three out of six
P388 Leukemia in Mice; qd 1-9, 12.5 mg/kg, sacrifice at 45 days
  treated mice survived until sacrifice at 45 days: Two out of six

## COc1cccc2c1C(=O)c1c(O)c3c(c(O)c1C2=O)C[C@@](O)(C(C)=NNC(=O)CCCC(=O)NN=C(C)[C@]1(O)Cc2c(O)c4c(c(O)c2[C@@H](O[C@H]2C[C@H](N)[C@H](O)[C@H](C)O2)C1)C(=O)c1c(OC)cccc1C4=O)C[C@@H]3O[C@H]1C[C@H](N)[C@H](O)[C@H](C)O1 [II, Bis(daunomycin) Glutarylhydrazone Dihydrochloride]
[1]; [7]
  IC50: 3.6 µM
[2]; [8]
  IC50: 4.5 µM
P388 Leukemia in Mice; Mus musculus, P388, ip, ip P388, treated ip, qd 1-9, optimum dose 1.56 mg/kg, read-out: Antitumor Efficacy T/C
  response vs control in vivo at 1.56 mg/kg: 188%
P388 Leukemia in Mice; Mus musculus, P388, ip, ip P388, treated ip, qd 1-9, optimum dose 3.12 mg/kg, read-out: Antitumor Efficacy T/C
  response vs control in vivo at 3.12 mg/kg: 149%

## COc1cccc2c1C(=O)c1c(O)c3c(c(O)c1C2=O)C[C@@](O)(C(C)=NNC(=O)CCCCC(=O)NN=C(C)[C@]1(O)Cc2c(O)c4c(c(O)c2[C@@H](O[C@H]2C[C@H](N)[C@H](O)[C@H](C)O2)C1)C(=O)c1c(OC)cccc1C4=O)C[C@@H]3O[C@H]1C[C@H](N)[C@H](O)[C@H](C)O1 [III, Bis(daunomycin) Adipylhydrazone Dihydrochloride]
[1]; [7]
  IC50: 3.6 µM
[2]; [8]
  IC50: 8.9 µM
P388 Leukemia in Mice; Mus musculus, P388, ip, ip P388, treated ip, q4d 5,9,13, optimum dose 37.5 mg/kg, read-out: Antitumor Efficacy T/C
  response vs control in vivo at 37.5 mg/kg: 196%
P388 Leukemia in Mice; [9]
  response vs control in vivo at 6.25 mg/kg: 281%

## COc1cccc2c1C(=O)c1c(O)c3c(c(O)c1C2=O)C[C@@](O)(C(C)=NNC(=O)CCCCCCC(=O)NN=C(C)[C@]1(O)Cc2c(O)c4c(c(O)c2[C@@H](O[C@H]2C[C@H](N)[C@H](O)[C@H](C)O2)C1)C(=O)c1c(OC)cccc1C4=O)C[C@@H]3O[C@H]1C[C@H](N)[C@H](O)[C@H](C)O1 [IV, Bis(daunomycin) Suberylhydrazone Dihydrochloride]
[1]; [7]
  IC50: 2.4 µM
[2]; [8]
  IC50: 4.9 µM
P388 Leukemia in Mice; [10]
  response vs control in vivo at 25 mg/kg: 178%
P388 Leukemia in Mice; Mus musculus, P388, ip, ip P388, treated ip, qd 1-9, optimum dose 8 mg/kg, read-out: Antitumor Efficacy T/C
  response vs control in vivo at 8 mg/kg: 245%

## COc1cccc2c1C(=O)c1c(O)c3c(c(O)c1C2=O)C[C@@](O)(C(C)=NNC(=O)C(=O)NN=C(C)[C@]1(O)Cc2c(O)c4c(c(O)c2[C@@H](O[C@H]2C[C@H](N)[C@H](O)[C@H](C)O2)C1)C(=O)c1c(OC)cccc1C4=O)C[C@@H]3O[C@H]1C[C@H](N)[C@H](O)[C@H](C)O1 [IX, Bis-(Daunomycin) Oxalylhydrazone Dihydrochloride]
[1]; [7]
  IC50: 2.3 µM
[2]; [8]
  IC50: 4.3 µM
P388 Leukemia in Mice; [10]
  response vs control in vivo at 25 mg/kg: 160%

## COc1cccc2c1C(=O)c1c(O)c3c(c(O)c1C2=O)C[C@@](O)(C(C)=NNC(=O)CCCCCCCCC(=O)NN=C(C)[C@]1(O)Cc2c(O)c4c(c(O)c2[C@@H](O[C@H]2C[C@H](N)[C@H](O)[C@H](C)O2)C1)C(=O)c1c(OC)cccc1C4=O)C[C@@H]3O[C@H]1C[C@H](N)[C@H](O)[C@H](C)O1 [V, Bis(Daunomycin) Sebacylhydrazone Dihydrochloride]
[1]; [3]
  IC50: 1 µM
[2]; [4]
  IC50: 10 µM
P388 Leukemia in Mice; [6]
  response vs control in vivo at 12.5 mg/kg: 221%
  response vs control in vivo at 50 mg/kg: 163%

## COc1cccc2c1C(=O)c1c(O)c3c(c(O)c1C2=O)C[C@@](O)(C(C)=NNC(=O)CCC(=O)NN=C(C)[C@]1(O)Cc2c(O)c4c(c(O)c2[C@@H](O[C@H]2C[C@H](N(C)C)[C@H](O)[C@H](C)O2)C1)C(=O)c1c(OC)cccc1C4=O)C[C@@H]3O[C@H]1C[C@H](N(C)C)[C@H](O)[C@H](C)O1 [VI, Bis(N,N-dimethyldaunomycin) Succinylhydrazone Dihydrochloride]
[1]; [7]
  IC50: 3 µM
[2]; [8]
  IC50: 19 µM
P388 Leukemia in Mice; [10]
  response vs control in vivo at 25 mg/kg: 158%
P388 Leukemia in Mice; Mus musculus, P388, ip, ip P388, treated ip, qd 1-9, optimum dose 4 mg/kg, read-out: Antitumor Efficacy T/C
  response vs control in vivo at 4 mg/kg: 178%

## COc1cccc2c1C(=O)c1c(O)c3c(c(O)c1C2=O)C[C@@](O)(C(CO)=NNC(=O)CCC(=O)NN=C(CO)[C@]1(O)Cc2c(O)c4c(c(O)c2[C@@H](O[C@H]2C[C@H](N)[C@H](O)[C@H](C)O2)C1)C(=O)c1c(OC)cccc1C4=O)C[C@@H]3O[C@H]1C[C@H](N)[C@H](O)[C@H](C)O1 [VII, Bis(adriamycin) Succinylhydrazone Dihydrochloride]
[1]; [7]
  IC50: 3.1 µM
[2]; [8]
  IC50: 13.3 µM
P388 Leukemia in Mice; Mus musculus, P388, ip, ip P388, treated ip, q4d 5,9,13, optimum dose 18.8 mg/kg, read-out: Antitumor Efficacy T/C
  response vs control in vivo at 18.8 mg/kg: 160%
P388 Leukemia in Mice; [9]
  response vs control in vivo at 6.25 mg/kg: 309%

## COc1cccc2c1C(=O)c1c(O)c3c(c(O)c1C2=O)C[C@@](O)(C(C)=NNC(=O)CC(=O)NN=C(C)[C@]1(O)Cc2c(O)c4c(c(O)c2[C@@H](O[C@H]2C[C@H](N)[C@H](O)[C@H](C)O2)C1)C(=O)c1c(OC)cccc1C4=O)C[C@@H]3O[C@H]1C[C@H](N)[C@H](O)[C@H](C)O1 [VIII, Bis(daunomycin) Malonylhydrazone Dihydrochloride]
[1]; [7]
  IC50: 7.4 µM
[2]; [8]
  IC50: 14.1 µM
P388 Leukemia in Mice; [9]
  response vs control in vivo at 6.25 mg/kg: 169%
P388 Leukemia in Mice; ip P388, treated ip, q4d 5,9,13, dose not given
  Antitumor Efficacy (in words): inactive

## COc1cccc2c1C(=O)c1c(O)c3c(c(O)c1C2=O)C[C@@](O)(C(C)=NNC(=O)CCCCCC(=O)NN=C(C)[C@]1(O)Cc2c(O)c4c(c(O)c2[C@@H](O[C@H]2C[C@H](N)[C@H](O)[C@H](C)O2)C1)C(=O)c1c(OC)cccc1C4=O)C[C@@H]3O[C@H]1C[C@H](N)[C@H](O)[C@H](C)O1 [X, Bis-(daunomycin) Pimelylhydrazone Dihydrochloride]
[1]; [3]
  IC50: 1.3 µM
[2]; [4]
  IC50: 2 µM
P388 Leukemia in Mice; [6]
  response vs control in vivo at 25 mg/kg: 160%
